Experimental data taken from patent publication US20080038381A1, “APPLICATION OF GREEN TEA EXTRACT AND ITS MAJOR COMPONENTS IN KELOID SCAR THERAPY” (UNIVERSITY OF SOUTHERN CALIFORNIA, priority 2006, published 2008).

Assays:
Type in all cases: cell-based, human
[1] = system: type I collagen expression in keloid fibroblasts co-cultured with HMC-1 cells; experiment: HMC-1-stimulated type I collagen expression in co-cultured keloid fibroblasts (Western blot); conditions: pretreated 1 h, then co-culture with same density of HMC-1 cells (1:1) for 24 h
Protocol: (§1) Keloid fibroblasts (1×10^5/well) were seeded on the bottom of a 6-well plate and maintained at normal culturing conditions for at least 24 h. Different densities of HMC-1 cells were seeded on top of the monolayer of fibroblasts and co-cultured for different time intervals based on experimental purposes. To observe the effects of GTE and EGCG or various specific kinase inhibitors on type I collagen expression in keloid fibroblasts co-cultured with HMC-1 cells, fibroblasts at about 80% confluence were pretreated with different concentrations of GTE, EGCG, or various kinase inhibitors for 1 h followed by co-culturing with the same cell density of HMC-1 cells (1:1) under normal culturing conditions for indicated time periods. Cell lysates were prepared for Western blot analysis.
To determine type I collagen, and phosphorylated ERK1/2 and Akt levels, cells were solubilized in lysis buffer (50 mM Tris-HCl, pH 7.5, 150 mM NaCl, 5 mM EDTA, 200 μM Na3VO4, 50 mM NaF, 0.5% Triton X-100) supplemented with 10 mM dithiothreitol (DTT), 200 FM phenylmethylsulfonyl fluoride (PMSF) and protease inhibitor cocktails (Sigma). Total protein concentrations of whole cell lysates were determined using BioRad BCA method (PIERCE, Rockford, Ill.). Equal amounts of protein sampled from whole cell lysates were subjected to electrophoresis on 7.5%-10% sodium dodecyl sulfate (SDS)-polyacrylamide gels and electroblotted onto nitrocellulose membranes (Hybond ECL, Amersham Pharmacia). After blocking with Tris-buffered saline (TBS)/5% skim milk, the membranes were incubated overnight at 4 °C with primary antibodies against human type I collagen, total or phosphorylated ERK1/2 (Thr202/Tyr204) or Akt (Ser473). Membranes were subsequently washed, incubated with a horseradish peroxidase (HRP) conjugated secondary:antibodies (1:2000) (Pierce, Rockford, Ill.) for 1 h at room temperature, and visualized using an enhanced chemiluminescent (ECL) detection.

[2] = system: phosphorylated ERK1/2; experiment: HMC-1-stimulated phosphorylated ERK1/2 level in keloid fibroblasts (Western blot); conditions: keloid fibroblasts pretreated 1 h, co-culture 1 h
Protocol: (§2) FIG. 5 Effects of GTE and EGCG on mast cell-stimulated activation of ERK1/2 and Akt, phosphorylation of p70S6K and 4E-BP-1 in keloid fibroblasts. Keloid fibroblasts (KFs) were pretreated with different concentrations of GTE or EGCG, or various kinase inhibitors for 1 h, followed by direct co-culture with the same number of HMC-1 cells under normal culturing condition for 1 h. Equal amount of cell lysates was subjected to Western blot analysis with an antibodies against ERK1/2 (a), p38 MAPK (b), Akt, p70S6K and 4E-BP1 (c) as described in Materials and Methods. Data presented are representative of results from 3 independent experiments.
(§3) Keloid fibroblasts (1×10^5/well) were seeded on the bottom of a 6-well plate and maintained at normal culturing conditions for at least 24 h. Different densities of HMC-1 cells were seeded on top of the monolayer of fibroblasts and co-cultured for different time intervals based on experimental purposes. […]
(§4) To determine type I collagen, and phosphorylated ERK1/2 and Akt levels, cells were solubilized in lysis buffer (50 mM Tris-HCl, pH 7.5, 150 mM NaCl, 5 mM EDTA, 200 μM Na3VO4, 50 mM NaF, 0.5% Triton X-100) supplemented with 10 mM dithiothreitol (DTT), 200 FM phenylmethylsulfonyl fluoride (PMSF) and protease inhibitor cocktails (Sigma). Total protein concentrations of whole cell lysates were determined using BioRad BCA method (PIERCE, Rockford, Ill.). […]

[3] = system: keloid fibroblasts; experiment: Cell viability by MTT assay, keloid fibroblasts; conditions: different concentrations, 24 h, normal conditions
[4] = system: p-p70S6K; experiment: HMC-1-stimulated p-p70S6K level in keloid fibroblasts (Western blot); conditions: keloid fibroblasts pretreated 1 h, co-culture 1 h
Protocol: as §2, §3, §4

[5] = system: type I collagen in keloid fibroblasts; experiment: Basal (constitutive) type I collagen level in keloid fibroblasts (Western blot); conditions: keloid fibroblasts alone, 24 h
Protocol: Equal amount of cell lysates (100 μg) was subjected to Western blot analysis with an anti-type I collagen antibody as described in Materials and Methods. […] (c) KFs were cultured in the presence of different concentrations of GTE or EGCG for 24 h, and type I collagen levels were determined by Western blot. (d) Denssitometric analysis of results from c. […] The results represent three independent experiments and expressed as the mean ±SD.
To determine type I collagen, and phosphorylated ERK1/2 and Akt levels, cells were solubilized in lysis buffer (50 mM Tris-HCl, pH 7.5, 150 mM NaCl, 5 mM EDTA, 200 μM Na3VO4, 50 mM NaF, 0.5% Triton X-100) supplemented with 10 mM dithiothreitol (DTT), 200 FM phenylmethylsulfonyl fluoride (PMSF) and protease inhibitor cocktails (Sigma). Total protein concentrations of whole cell lysates were determined using BioRad BCA method (PIERCE, Rockford, Ill.). Equal amounts of protein sampled from whole cell lysates were subjected to electrophoresis on 7.5%-10% sodium dodecyl sulfate (SDS)-polyacrylamide gels and electroblotted onto nitrocellulose membranes (Hybond ECL, Amersham Pharmacia). […]
To find out whether GTE and EGCG have any effects on the basal level of type I collagen in keloid fibroblasts, cells were cultured in the presence of different concentrations of GTE or EGCG for 24 hours and type I collagen levels were determined by Western blot.

[6] = system: HMC-1 cells; experiment: Cell viability by MTT assay, HMC-1 cells; conditions: different concentrations, 24 h, normal conditions
[7] = system: phosphorylated Akt; experiment: HMC-1-stimulated phosphorylated Akt level in keloid fibroblasts (Western blot); conditions: keloid fibroblasts pretreated 1 h, co-culture 1 h
Protocol: as §2, with “experiments. Keloid fibroblasts (1×10^5/well) were seeded on the bottom of a 6-well plate and maintained at normal culturing conditions for at least 24 h. Different densities of HMC-1 cells were seeded on top of the monolayer of fibroblasts and co-cultured for different time intervals based on experimental purposes. […] Total protein concentrations of whole cell lysates were determined using BioRad BCA method (PIERCE, Rockford, Ill.). […]” for “experiments.”

[8] = system: p-4E-BP; experiment: HMC-1-stimulated p-4E-BP level in keloid fibroblasts (Western blot); conditions: keloid fibroblasts pretreated 1 h, co-culture 1 h
Protocol: as §2, with “experiments. Keloid fibroblasts (1×10^5/well) were seeded on the bottom of a 6-well plate and maintained at normal culturing conditions for at least 24 h. Different densities of HMC-1 cells were seeded on top of the monolayer of fibroblasts and co-cultured for different time intervals based on experimental purposes. […] Total protein concentrations of whole cell lysates were determined using BioRad BCA method (PIERCE, Rockford, Ill.). […]” for “experiments.”

[9] = system: phosphorylated p38 MAPK; experiment: HMC-1-stimulated phosphorylated p38 MAPK level in keloid fibroblasts (Western blot); conditions: keloid fibroblasts pretreated 1 h, co-culture 1 h
Protocol: as §2, §3, §4

[10] = system: pro-COL1A1 and COL1A2 gene mRNA; experiment: COL1A1 and COL1A2 mRNA levels by RT-PCR in co-cultured keloid fibroblasts and HMC-1 cells; conditions: pretreated 1 h, co-culture with HMC-1 cells 24 h
Protocol: as §1
Total RNA was isolated from […] using TRIZOL® Reagent (Invitrogen). RT-PCR analysis of COL1A1, COL1A2 and β-actin mRNA levels was performed using the One-step RT-PCR Kit (QIAGEN, Valencia, Calif.) with primers specific to COL1A1: forward primer 5′-[…]-3′ and reverse primer 5′-[…]-3′; primers for COL1A2: forward primer 5′-[…]-3′ and reverse primer 5′-[…]-3′ (Stefanovic et al., 2005); primers for […]1-actin: forward primer 5′-[…]-3′ and reverse primer 5′-[…]-3′. All the primers were synthesized by Microchemical Core Facility, Norris Cancer Center of University of Southern California.

COc1cccc(-c2cc(=O)c3ccccc3o2)c1N [PD98059]
HMC-1-stimulated type I collagen expression (protein production) in keloid fibroblasts [1]: no obvious inhibitory effects

C[S+]([O-])c1ccc(-c2nc(-c3ccncc3)c(-c3ccc(F)cc3)[nH]2)cc1 (stereo not shown) [SB203580]
HMC-1-stimulated type I collagen expression (protein production) in keloid fibroblasts [1]: dose dependent inhibition

N#CC(=C(/N)Sc1ccccc1N)/C(C#N)=C(\N)Sc1ccccc1N [U0126]
HMC-1-stimulated type I collagen expression (protein production) in keloid fibroblasts [1]: no obvious inhibitory effects

O=C(O[C@@H]1Cc2c(O)cc(O)cc2O[C@@H]1c1cc(O)c(O)c(O)c1)c1cc(O)c(O)c(O)c1 [EGCG, (−)-epigallocatechin-3-gallate]
phosphorylated ERK1/2 level stimulated by co-culture with HMC-1 cells [2]: did not have any obvious inhibitory effects | cell viability (MTT), keloid fibroblasts [3]: No obvious changes in cell viability | HMC-1-stimulated type I collagen expression (protein production) in keloid fibroblasts [1]: dose-dependent reduction | p-p70S6K level stimulated by HMC-1 cells [4]: dose-dependent reduction | constitutive (basal) expression of type I collagen in keloid fibroblasts [5]: inhibited the constitutive expression of type I collagen in a dose-dependent manner | cell viability (MTT), HMC-1 cells [6]: No obvious changes in cell viability | phosphorylated Akt level stimulated by HMC-1 cells [7]: dose-dependent reduction | p-4E-BP level stimulated by HMC-1 cells [8]: dose-dependent reduction | phosphorylated p38 MAPK level stimulated by co-culture with HMC-1 cells [9]: did not have any obvious inhibitory effects | HMC-1-stimulated type I collagen mRNA messages (pro-COL1A1, COL1A2) in keloid fibroblasts [10]: dose-dependent reduction
